Structures can show the parent of a compound that is named as a salt. Where two headings read alike, the source gives them in different places.
Columns and labels:
T47D cells = test: Viability of T47D breast cancer cells; assay type: cell-based, human; settings: for inhibition at 100 µM / IC50: Homo sapiens, T47D; for inhibition at 100 µM: read-out: Decrease in cell number (maximal decrease = 100%), T47D
Procedure: (§1) To quantify cell death, around the time when significant and characteristic morphological changes took place, cells were pulse-labeled for 10 minutes with [^3H]thymidine to measure DNA activity as described elsewhere [Tomono, M. and Kiss, Z. (1995), “Ethanol enhances the stimulatory effects of insulin and insulin-like growth factor-I on DNA synthesis in NIH 3T3 fibroblasts,” Biochem. Biophys. Res. Commun. 208, 63-67]. Also, cells were collected as suspensions using trypsin, an established method in cell biology, followed by re-plating of cells in fresh tissue culture medium. If no viable cells were obtained after one week in culture, it meant that the cells at the time of re-plating were dead. Survival values obtained with untreated cells were considered 100%. For the determination of relative number of viable cells after treatments, in most cases the MTT assay was used. This calorimetric assay is based on the ability of living cells, but not dead cells, to reduce 3-(4,5-dimethyl thiazol-2-yl)-2,5-diphenyltetrazolium bromide [Carmichael, J, De Graff, W. G., Gazdar, A. F., Minna, J. D. and Mitchell, J. B. (1987), “Evaluation of tetrazolium-based semi-automated calorimetric assay: Assessment of chemosensitivity testing,” Cancer Res. 47, 936-942]. For this assay, cells were plated in 96-well plates, and the MTT assay was performed both in untreated and treated cell cultures. The MTT assay also was performed at the start of treatments to allow assessment of proliferation rates in the control and treated cell cultures.
About 40% confluent cultures of T47D cells, cultured in 12-well plates in RPMI 1640 medium supplemented with 0.2 IU bovine insulin and 10% FBS, were either untreated (FIG. 4A), or were treated with 100 μM CCDTHT (CCompound3) for 72 hours (FIG. 4B).
(§2) NIH3T3, T47D, A-431, HT-29, and MEL-28 cells were cultured as indicated earlier. CaOV-3 human ovarian cancer cells were cultured in DMEM containing 10% FBS. ZR-75-1 human estrogen receptor-positive breast cancer cells were maintained in RPMI 1640 medium supplemented with 10% FBS. HTB-157 human fetal fibroblasts, MEL-24 human malignant melanoma cells, Hep G2 human hepatoblastoma cells, and CaCO-2 human colon adenocarcinoma cells were maintained in Eagles's MEM containing 10% FBS. MB-231 human estrogen receptor-negative breast cancer cells were maintained in Leibovitz's L-15 medium supplemented with 10% FBS. Cells were seeded into 96-well plates and treated at ˜70-90% confluency. Two hours prior to treatments the medium was changed for fresh 10% serum medium, and then the cells were incubated for 10 days in the absence (□) or presence of 50 μM CCDTHT ? or 100 μM CCDTHT (▪). The medium was changed and the cells were re-treated on days 3 and 6. The MTT assay was used to determine cell viability on day 10. The data, shown in FIG. 6, are the mean±std. dev. of 8 incubations in one experiment.
The MRC-5 cell line is derived from normal lung tissue of a […] fetus. MRC-5 cells were maintained and treated in Eagles Medium with Hanks' BSS containing 10% fetal bovine serum. The T47D cells were maintained and treated in RPMI 1640 medium supplemented with 0.2 IU bovine insulin and 10% fetal bovine serum. The CaOV-3 human ovarian cancer cells were cultured in Dulbecco's modified Eagle's medium containing 10% fetal bovine serum. The cells were seeded in 96-well plates either at 10,000 cells per well or 30,000 cells per well to examine the antiproliferative and cytotoxic effects of various CC compounds, respectively. The cells were incubated for 24 hours, then the medium was changed followed by the treatments of cultures 2 hours after the medium change. At this point, cell cultures seeded at 10,000 cells per well and 30,000 cells per well were 25-35% and 80-90% confluent, respectively.

OVCAR cells = test: Viability of OVCAR ovarian cancer cells (MTT assay); assay type: cell-based; settings: Homo sapiens, 72 hours, read-out: Decrease in cell number (maximal decrease = 100%), OVCAR
Procedure: as §1
NIH 3T3, MEL-28, MEL-24, CaOV-3, ZR-75-1, and T47D cells were cultured as described above. The OVCAR human ovarian cancer cells were cultured in DMEM containing 10% FBS. Cells were seeded into 96-well plates and used at ˜60-80% confluency. Two hours before treatments the medium was changed for fresh 10% serum medium, and then the cells were incubated for 72 hours in the absence or presence of 100 μM of each of CC compounds as listed in TABLE 3. The inhibitory effects of CC compounds on cell proliferation are expressed as percent decrease compared to untreated cell cultures (the greater the number, the greater the inhibitory effect of the CC compound). […] Also, for the treatment of ovarian cancer and breast cancer, CCDTHT seems to be the best choice (although in this experiment CCompounds21-26 were not tested).

MEL-28 cells = test: Viability of MEL-28 melanoma cells; assay type: cell-based, human; settings: for inhibition at 100 µM: Homo sapiens, SK-MEL-28, read-out: Decrease in cell number (maximal decrease = 100%), MEL-28
Procedure: as §1
About 60% confluent cultures of MEL-28 cells, cultured in 12-well plates in MEM medium supplemented with 10% FBS, were either untreated (FIG. 2A), or were treated with 100 μM CCDTHT (CCompound3) for 72 hours (FIG. 2B).
The NIH 3T3 (normal) mouse fibroblast, A431 human epidermoid adenocarcinoma, and MCF-7 human breast cancer cells were cultured in DMEM medium containing 10% FBS. The MEL-28 human melanoma cells were cultured in MEM medium containing 10% FBS. The HT-29 human colon adenocarcinoma cells were cultured in McCoy's 5a medium containing 10% FBS. The A549 human lung carcinoma cells were maintained in Ham's F12K medium containing 10% FBS. Cells were seeded into 96-well plates and treated at ˜70-90% confluency. Two hours before treatments the medium was changed for fresh 10% serum medium, and then the cells were incubated for 72 hours in the presence of 0-200 μM of CCompound1 (●) or CCompound3 (CCDTHT) (▴), as indicated. The MTT assay was used to determine cell viability after treatments. The values, shown in FIGS. 5A-5F and expressed as percent decrease in viability compared to the untreated control cells, are the mean±std. dev. of 8 incubations in one experiment.
as §2

[1] = 100 μM, 72 hours, 12-well plates

| SMILES | inhibition at 100 µM (T47D cells; 100 μM, 72 hours) [%] | inhibition at 100 µM (OVCAR cells) [%] | inhibition at 100 µM (MEL-28 cells; 100 μM, 72 hours) [%] | also measured |
| --- | --- | --- | --- | --- |
| CC[N+](CC)(CCO)Cc1ccc2sc3ccccc3c(=O)c2c1 [CCcompound14, 2-Hydroxy-N,N-Diethyl-N-[(9-oxo-9H-thioxanthen-2-yl)methyl]-ethanaminium bromide] | 58 | 65 | 90 |  |
| C[N+](C)(CCO)Cc1ccc2sc3ccccc3c(=O)c2c1 [CCcompound13, 2-Hydroxy-N,N-dimethyl-N-[(9-oxo-9H-thioxanthen-2-yl)methyl]-ethanaminium bromide] | 47 | 27 | 11 |  |
| CC[N+](C)(C)CCCOCc1ccc2sc3ccccc3c(=O)c2c1 [CCcompound11, N,N-Dimethyl-N-ethyl-3-[(9-oxo-9H-thioxanthen-2-yl)methoxy]-propane-1-aminium iodide] | 59 | 62 | 94 |  |
| C[N+](C)(CCCO)Cc1ccc2sc3ccccc3c(=O)c2c1 [CCcompound15, 3-Hydroxy-N,N-dimethyl-N-[(9-oxo-9H-thioxanthen-2-yl)methyl]propane-1-aminium bromide] | 35 | 26 | 19 |  |
| CC[NH+](CC)CCCOCc1ccc2sc3ccccc3c(=O)c2c1 [CCcompound12, 2-{[3-(Diethylamino)propoxy]meth-yl}-9H-thioxanthen-9-one hydrochloride] | 48 | 30 | 71 |  |
| CC[N+](CC)(CCCO)Cc1ccc2sc3ccccc3c(=O)c2c1 [CCcompound16, 3-Hydroxy-N,N-diethyl-N-[(9-oxo-9H-thioxanthen-2-yl)methyl]-propane-1-aminium bromide] | 48 | 0 | 10 |  |
| CC[N+](CC)(CC)CCCOCc1ccc2sc3ccccc3c(=O)c2c1 [CCcompound9, N,N,N-Triethyl-3-[(9-oxo-9H-thioxanthen-2-yl)methoxy]-propane-1-aminium iodide] | 52 | 41 | 14 |  |
| CC[N+](C)(CC)CCOCc1ccc2sc3ccccc3c(=O)c2c1.[I-] [CCDTHT, N,N-diethyl-N-methyl-2-[(9-oxo-9H-thioxanthen-2-yl)methoxy]-ethanaminium iodide] | 61 | 63 | 60 | DNA synthesis after re-seeding treated T47D cells (T47D cells; 100 μM 72 hours, re-seeded, 96 hours later): no DNA synthesis could be detected; morphology / cell death, T47D (T47D cells; [1]): practically all cells rounded up; sensitivity to the inhibitory actions, T47D (T47D cells; 50 and 100 μM, 10 days, MTT): very sensitive; IC50 (T47D cells; 10,000 cells per well (25-35% confluent), 72 hours, MTT, read-out: IC50 values, Antiproliferative, T47D): 47 µM; IC50 (T47D cells; 30,000 cells per well (80-90% confluent), 72 hours, MTT, read-out: IC50 values, Cytotoxic, T47D): 66 µM; reduction of cell numbers, MEL-28, CCDTHT versus CCompound1 (MEL-28 cells; 0-200 μM, 72 hours, MTT): clearly more effective than CCompound1; reversibility: proliferation in fresh medium after treatment, MEL-28 (MEL-28 cells; 50 μM 48 hours, then 96 hours without CCDTHT): not sufficient to suppress proliferation; DNA synthesis (radiolabeled thymidine), MEL-28 (MEL-28 cells; 100 μM, 72 hours): did not synthesize detectable amount of DNA; morphology / cell death, MEL-28 (MEL-28 cells; [1]): practically all cells rounded up; decrease in the number of viable cells versus 0.5 mM HC-3, MEL-28 (MEL-28 cells; 100 μM, 72 hours, MTT): much greater decreases in the number of viable cells compared to 0.5 mM HC-3; sensitivity to the inhibitory actions, MEL-28 (MEL-28 cells; 50 and 100 μM, 10 days, MTT): very sensitive |
| CC[N+](C)(CC)CCCOCc1ccc2sc3ccccc3c(=O)c2c1 [CCcompound10, N,N-Diethyl-N-methyl-3-[(9-oxo-9H-thioxanthen-2-yl)methoxy]-propane-1-aminium iodide] | 51 | 38 | 11 |  |

Reference: patent publication US7943606B2, “Compositions and methods to control abnormal cell growth” (CanCure Laboratories, LLC, priority 2005, dated 2011)
